Measurements as given in ChEMBL document CHEMBL5338794, “Optimization of Orally Bioavailable Antileishmanial 2,4,5-Trisubstituted Benzamides” (J Med Chem, 2023).

Columns and labels:
Leishmania mexicana = assay: Antileishmanial activity against renilla luciferase-expressing Leishmania mexicana promastigotes infected in mouse J774.A1 cells assessed as inhibition of intracellular amastigotes growth incubated for 96 hrs by Renilla luciferase assay; assay type: functional, organism-based; settings: J774.A1, 96 h
BJ = assay: Cytotoxicity against human BJ cells assessed as reduction in cell viability incubated for 72 hrs by Cell TiterGlo assay; assay type: functional, cell-based

SMILES	EC50 (Leishmania mexicana) [µM]	EC50 (BJ) [µM]
Cc1ccc(-c2nc3ccccc3s2)cc1NC(=O)c1cc([N+](=O)[O-])c(N2CC3(CN(C(=O)OC(C)(C)C)C3)C2)cc1Cl	63	
O=C(Nc1cnc(Cl)c(Cl)c1)c1cc([N+](=O)[O-])c(F)cc1F	0.2	1.6
CC(=O)Nc1cccc(NC(=O)c2cc([N+](=O)[O-])c(F)cc2Cl)c1	2.9	
O=C(Nc1cccc(-c2ccccn2)c1)c1cc([N+](=O)[O-])c(F)cc1Cl	1.1	
Cc1ccc(-c2nc3ccccc3s2)cc1NC(=O)c1cc([N+](=O)[O-])c(N2CC3(COC3)C2)cc1Cl	29	
O=C(Nc1ccc(F)c(F)c1)c1cc([N+](=O)[O-])c(F)cc1Cl	1.3	
O=C(Nc1cncc(-c2nc3ccccc3o2)c1)c1cc([N+](=O)[O-])c(F)cc1F	0.5	> 30
N#Cc1ccc(NC(=O)c2ccc(N3CCNCC3)c([N+](=O)[O-])c2)cc1	5.4	
Cc1ccc(-c2nc3ccccc3s2)cc1NC(=O)c1ccc(Cl)nc1	8.2	
Cc1ccc(Br)cc1NC(=O)c1cc([N+](=O)[O-])c(F)cc1Cl	1.4	
O=C(Nc1ccc(Cl)c(Cl)c1)c1ccc(N2CCNCC2)nc1	1.4	
O=C(Nc1cccc(Cl)c1)c1cc([N+](=O)[O-])c(F)cc1F	0.6	1.8
CN1CCN(c2cc(Cl)c(C(=O)Nc3cncc(-c4nc5ccccc5s4)c3)cc2[N+](=O)[O-])CC1	0.9	> 30
Cc1ccc(-c2nc3ccccc3s2)cc1NC(=O)c1ccc(F)nc1	6.4	
O=C(Nc1ccc(Cl)c(Cl)c1)c1ccc(F)c([N+](=O)[O-])c1	1.1	
Cc1ccc(-c2nc3ccccc3s2)cc1NC(=O)c1cc([N+](=O)[O-])c(NCCNC(=O)OC(C)(C)C)cc1Cl	0.7	> 25
O=C(Nc1cccc(Cl)c1)c1ccc(F)c([N+](=O)[O-])c1	4	
O=C(Nc1ccc(Cl)c(Cl)c1)c1cc([N+](=O)[O-])c(F)cc1Cl	0.9	4.2
Cc1ccc(-c2nc3ccccc3s2)cc1NC(=O)c1ccc(Br)cc1F	45	
Cc1ccc(C)c(NC(=O)c2cc([N+](=O)[O-])c(F)cc2Cl)c1	2.4	
O=C(Nc1cccc(-c2nccs2)c1)c1cc([N+](=O)[O-])c(F)cc1Cl	1.3	
Cc1ccc(NC(=O)c2cc([N+](=O)[O-])c(F)cc2Cl)cc1	1.2	
O=C(Nc1cccc(-c2nccs2)c1)c1ccc(N2CCNCC2)c([N+](=O)[O-])c1	1.4	

SMILES	EC50 (Leishmania mexicana) [µM]	EC50 (BJ) [µM]
O=C(Nc1cccc(-c2nccs2)c1)c1cc([N+](=O)[O-])c(N2CCNCC2)cc1Cl	1.5	
Cc1ccc(-c2nc3ccccc3s2)cc1NC(=O)c1cnccc1Cl	8.8	
Cc1ccc(-c2nc3ccccc3s2)cc1NC(=O)c1cnccc1O	53	
O=C(Nc1cncc(-c2nc3ccccc3s2)c1)c1cc([N+](=O)[O-])c(F)cc1Cl	0.9	4.9
O=C(Nc1ccc(-c2ccccc2)cc1)c1cc([N+](=O)[O-])c(F)cc1Cl	1.3	
O=C(Nc1cccnc1)c1cc([N+](=O)[O-])c(F)cc1Cl	4.6	
O=C(Nc1cccc(-c2nc3ccccc3o2)c1)c1cc([N+](=O)[O-])c(F)cc1F	0.8	4.5
Cc1ccc(-c2nc3ccccc3s2)cc1NC(=O)c1cc([N+](=O)[O-])c(F)cc1Cl	1.2	
COc1ccncc1C(=O)Nc1cc(-c2nc3ccccc3s2)ccc1C	31	
O=C(Nc1ccc(Cl)cc1)c1cc([N+](=O)[O-])c(F)cc1Cl	1.1	
O=C(Nc1cccc(-c2nc3ccccc3o2)c1)c1cc([N+](=O)[O-])c(F)cc1Cl	0.9	> 30
Cc1ccc(-c2nc3ccccc3s2)cc1NC(=O)c1cnccc1F	27	
O=C(Nc1cccc(-c2nccs2)c1)c1cc([N+](=O)[O-])c(F)cc1F	0.4	1.5
O=C(Nc1ccc(Cl)c(Cl)c1)c1cc([N+](=O)[O-])c(F)cc1F	0.2	2.4
O=C(Nc1ccc(F)c(Cl)c1)c1cc([N+](=O)[O-])c(F)cc1Cl	1	
O=C(Nc1cnc(Cl)c(Cl)c1)c1ccc(N2CCNCC2)c([N+](=O)[O-])c1	1.2	
Cc1ccc(-c2nc3ccccc3s2)cc1NC(=O)c1ccc(F)c([N+](=O)[O-])c1	1.2	
Cc1cc(Cl)c(Cl)cc1NC(=O)c1cc([N+](=O)[O-])c(F)cc1Cl	0.8	4.2
Cc1ccc(C(F)(F)F)cc1NC(=O)c1cc([N+](=O)[O-])c(F)cc1Cl	1.7	
COc1cc(Cl)ncc1C(=O)Nc1cc(-c2nc3ccccc3s2)ccc1C	42	
Cc1ccc(-c2nc3ccccc3o2)cc1NC(=O)c1cc([N+](=O)[O-])c(F)cc1Cl	0.4	16
Cc1ccc(-c2nc3ccccc3s2)cc1NC(=O)c1cc([N+](=O)[O-])c(NCCN)cc1Cl	0.3	6.3
Cc1ccc(-c2nc3ccccc3s2)cc1NC(=O)c1cc([N+](=O)[O-])ccc1F	64	

SMILES	EC50 (Leishmania mexicana) [µM]	EC50 (BJ) [µM]
Cc1ccc(-c2nc3ccccc3s2)cc1NC(=O)c1ccc(F)c(C(F)(F)F)c1	21	
Cc1ccc(-c2nc3ccccc3s2)cc1NC(=O)c1cc([N+](=O)[O-])c(N2CC3(CNC3)C2)cc1Cl	0.7	11.3
Cc1ccc(-c2nc3ccccc3s2)cc1NC(=O)c1cnccc1C#N	51	
Cc1ccc(-c2nc3ccccc3s2)cc1NC(=O)c1ccc(Br)cc1Cl	57	
O=C(Nc1cccc(-c2ncco2)c1)c1cc([N+](=O)[O-])c(F)cc1Cl	0.9	
Cc1ccc(-c2nc3ccccc3s2)cc1NC(=O)c1ccc(N2CCNCC2)c([N+](=O)[O-])c1	0.3	8.6
Cc1ccc(-c2nc3ccccc3s2)cc1NC(=O)c1cc([N+](=O)[O-])ccc1C(F)(F)F	56	
Cc1ccc(-c2nc3ccccc3o2)cc1NC(=O)c1cc([N+](=O)[O-])c(N2CCN(C)CC2)cc1Cl	0.8	4.6
Cc1ccc(-c2nc3ccccc3s2)cc1NC(=O)c1cc([N+](=O)[O-])c(Cl)cc1F	2	
Cc1ccc(-c2nc3ccccc3s2)cc1NC(=O)c1cc([N+](=O)[O-])c(N(C)CCN(C)C)cc1Cl	0.4	6.1
N#Cc1ccc(NC(=O)c2cc([N+](=O)[O-])c(F)cc2Cl)cc1	1	
Cc1cc(Cl)c(Cl)cc1NC(=O)c1ccc(F)c([N+](=O)[O-])c1	2.4	
O=C(Nc1ccc(F)cc1)c1cc([N+](=O)[O-])c(F)cc1Cl	1.2	
O=C(Nc1cnc(Cl)c(Cl)c1)c1cc([N+](=O)[O-])c(F)cc1Cl	0.5	
O=C(Nc1cccc(-c2cccnc2)c1)c1cc([N+](=O)[O-])c(F)cc1Cl	2	
CN1CCN(c2cc(Cl)c(C(=O)Nc3cccc(-c4nccs4)c3)cc2[N+](=O)[O-])CC1	2.1	
Cc1ccc(-c2nc3ccccc3s2)cc1NC(=O)c1cnc(Cl)cc1Cl	9.8	
O=C(Nc1cccc(-c2ncco2)c1)c1ccc(N2CCNCC2)c([N+](=O)[O-])c1	3.1	
Cc1ccc(-c2nc3ccccc3s2)cc1NC(=O)c1cc([N+](=O)[O-])c(Cl)cc1Cl	4.3	
O=C(Nc1cccc(Cl)c1)c1ccc(N2CCNCC2)c([N+](=O)[O-])c1	1.4	
Cc1ccc(-c2nc3ccccc3s2)cc1NC(=O)c1ccc(Cl)c([N+](=O)[O-])c1	20	
